Source: patent US6461997B1, “Triazole sulfones having herbicidal activity” (Monsanto Technology LLC, priority 1999, dated 2002)

Assays:
[1] = tested on: PANMI (wild proso millet); experiment: Pre-emergence herbicidal activity, warm season; format: in vivo, Panicum miliaceum; details: GR80 = lowest tested rate (300, 100, 30, 10 g/ha) with 80% or greater inhibition; approx. 14 days after treating; 30/21° C.
Procedure, shortened: (§1)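 Pre-emergence soil-surface spray; rates 300/100/30/10 g/ha; acetone:water 50:50 diluent. Warm-season species (PANMI, DIGSA) grown at 30/21 °C, cool-season species (ALOMY, POLCO) at 18/13 °C. Inhibition scored ~14 d after treatment versus untreated controls → GR80.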

[2] = tested on: SORVU (shattercane); experiment: Pre-emergence herbicidal activity, warm season; format: in vivo, Sorghum vulgare; details: GR80 = lowest tested rate (300, 100, 30, 10 g/ha) with 80% or greater inhibition; approx. 14 days after treating; 30/21° C.
Procedure, shortened: (§2)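 GR80 values derive from percent inhibition relative to untreated plants, read roughly 14 days after sowing and pre-emergence soil-surface treatment (compound in 50:50 acetone/water; rates typically 10, 30, 100, 300 g/ha). Warm-season weeds grew at 30/21° C day/night, cool-season ones at 18/13° C; an asterisk marks activity without reaching 80% at the highest rate.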

[3] = tested on: GALAP (catchweed bedstraw); experiment: Pre-emergence herbicidal activity, cool season; format: in vivo, Galium aparine; details: lowest tested rate with 80% or greater inhibition; rates 300, 100, 30, 10 g/ha; about 14 days
Procedure, shortened: as §2

[4] = tested on: POLCO (wild buckwheat); experiment: Pre-emergence herbicidal activity, cool season; format: in vivo, Polygonum convolvulus; details: lowest tested rate with 80% or greater inhibition; rates 300, 100, 30, 10 g/ha; about 14 days
Procedure, shortened: as §1

[5] = tested on: SINAR (wild mustard); experiment: Pre-emergence herbicidal activity, cool season; format: in vivo, Sinapis arvensis; details: lowest tested rate with 80% or greater inhibition; rates 300, 100, 30, 10 g/ha; about 14 days
Procedure, shortened: as §2

[6] = tested on: VERPE (creeping speedwell); experiment: Pre-emergence herbicidal activity, cool season; format: in vivo, Veronica persicaria; details: lowest tested rate with 80% or greater inhibition; rates 300, 100, 30, 10 g/ha; about 14 days
Procedure, shortened: as §2

[7] = tested on: SASKR (russian thistle); experiment: Pre-emergence herbicidal activity, cool season; format: in vivo, Salsola kali; details: lowest tested rate with 80% or greater inhibition; rates 300, 100, 30, 10 g/ha; about 14 days
Procedure, shortened: as §2

[8] = tested on: STEME (common chickweed); experiment: Pre-emergence herbicidal activity, cool season; format: in vivo, Stellaria media; details: lowest tested rate with 80% or greater inhibition; rates 300, 100, 30, 10 g/ha; about 14 days
Procedure, shortened: as §2

[9] = tested on: LAMPU (purple deadnettle); experiment: Pre-emergence herbicidal activity, cool season; format: in vivo, Lamium purpureum; details: lowest tested rate with 80% or greater inhibition; rates 300, 100, 30, 10 g/ha; about 14 days
Procedure, shortened: as §2

[10] = tested on: ALOMY (blackgrass); experiment: Post-emergence herbicidal activity, cool season; format: in vivo, Alopecurus myosuroides; details: abraded plants sprayed at 300, 100, 30 and 10 g/ha; about 14 days after treatment
Method: (§3) In another set of tests, the post-emergence activity of compounds of this invention was evaluated on the cool season species listed above. The following procedure was used.
(§4) A pre-prepared topsoil mixture (described above) was placed in a pot and compacted to a depth of 1.0 to 1.25 cm from the top of the pot. Seeds of each of several monocotyledonous and dicotyledonous annual plant species were placed on top of the soil. The seeds were covered with a mixture of 50% topsoil and 50% Rediearth™ in sufficient quantity to level-fill the pots. The pots were then placed on a greenhouse bench and subirrigated as needed.
(§5) When plants growing from the seeds had emerged and reached a suitable growth stage for post-emergence treatment, typically 9 to 14 days after planting, above-ground parts of the plants were subjected to a pre-treatment involving abrasion to create greater opportunity for foliar uptake of subsequently applied compounds. Abrasion was performed using garnet 200w particles applied with a Sears Craftsman hand-held sandblaster operated at approximately 850 kPa (50 psig) pressure.
(§6) A known amount of each test compound dissolved or suspended in an appropriate organic solvent was diluted with a 50:50 mix of acetone and water and applied to the plants by spraying with a standard spray nozzle in a spray volume of […] at a spray pressure of 511 kPa (30 psig). Only the compounds of Examples 1, 8-15 and 17-22 were included in post-emergence tests. Application rates for these compounds were 300, 100, 30 and 10 g/ha. Control plants were abraded but not sprayed.
(§7) After treatment the plants were placed in a greenhouse with an 18/13° C. day/night temperature regime and were subsequently watered as needed for growth. Approximately 14 days after treatment, the plants were observed and herbicidal efficacy recorded as percent inhibition by comparison with control plants. GR80 values were assigned for each compound as described above for the pre-emergence tests.

[11] = tested on: SETVI (green foxtail); experiment: Post-emergence herbicidal activity, cool season; format: in vivo, Setaria viridis; details: abraded plants sprayed at 300, 100, 30 and 10 g/ha; about 14 days after treatment
Method: as §3, §4, §5, §6, §7

[12] = tested on: LOLMG (annual ryegrass); experiment: Post-emergence herbicidal activity, cool season; format: in vivo, Lolium multiflorum; details: abraded plants sprayed at 300, 100, 30 and 10 g/ha; about 14 days after treatment
Method: as §3, §4, §5, §6, §7

[13] = tested on: BROTE (downy brome); experiment: Post-emergence herbicidal activity, cool season; format: in vivo, Bromus tectorum; details: abraded plants sprayed at 300, 100, 30 and 10 g/ha; about 14 days after treatment
Method: as §3, §4, §5, §6, §7

[14] = tested on: AVEFA (wild oat); experiment: Post-emergence herbicidal activity, cool season; format: in vivo, Avena fatua; details: abraded plants sprayed at 300, 100, 30 and 10 g/ha; about 14 days after treatment
Method: as §3, §4, §5, §6, §7

[15] = tested on: AEGCY (jointed goatgrass); experiment: Post-emergence herbicidal activity, cool season; format: in vivo, Aegilops cylindrica; details: abraded plants sprayed at 300, 100, 30 and 10 g/ha; about 14 days after treatment
Method: as §3, §4, §5, §6, §7

[16] = tested on: AGSST (creeping bentgrass); experiment: Post-emergence herbicidal activity, cool season; format: in vivo, Agrostis stolonifera; details: abraded plants sprayed at 300, 100, 30 and 10 g/ha; about 14 days after treatment
Method: as §3, §4, §5, §6, §7

[17] = tested on: AGRRE (quackgrass (seedling)); experiment: Post-emergence herbicidal activity, cool season; format: in vivo, Elymus repens; details: abraded plants sprayed at 300, 100, 30 and 10 g/ha; about 14 days after treatment
Method: as §3, §4, §5, §6, §7

[18] = tested on: CHEAL (common lambsquarters); experiment: Pre-emergence herbicidal activity, warm season; format: in vivo, Chenopodium album; details: GR80 = lowest tested rate (300, 100, 30, 10 g/ha) with 80% or greater inhibition; approx. 14 days after treating; 30/21° C.
Procedure, shortened: as §2

[19] = tested on: PANDI (fall panicum); experiment: Pre-emergence herbicidal activity, warm season; format: in vivo, Panicum dichotomiflorum; details: GR80 = lowest tested rate (300, 100, 30, 10 g/ha) with 80% or greater inhibition; approx. 14 days after treating; 30/21° C.
Procedure, shortened: as §2

[20] = tested on: AGSST (creeping bentgrass); experiment: Pre-emergence herbicidal activity, cool season; format: in vivo, Agrostis stolonifera; details: GR80 = lowest tested rate (300, 100, 30, 10 g/ha) with 80% or greater inhibition; approx. 14 days after treating; 18/13° C.
Procedure, shortened: as §2

[21] = tested on: SOLNI (black nightshade); experiment: Pre-emergence herbicidal activity, warm season; format: in vivo, Solanum nigrum; details: GR80 = lowest tested rate (300, 100, 30, 10 g/ha) with 80% or greater inhibition; approx. 14 days after treating; 30/21° C.
Procedure, shortened: as §2

[22] = tested on: ECHCG (barnyardgrass); experiment: Pre-emergence herbicidal activity, warm season; format: in vivo, Echinochloa crus-galli; details: GR80 = lowest tested rate (300, 100, 30, 10 g/ha) with 80% or greater inhibition; approx. 14 days after treating; 30/21° C.
Procedure, shortened: as §2

[23] = tested on: SETFA (giant foxtail); experiment: Pre-emergence herbicidal activity, warm season; format: in vivo, Setaria faberi; details: GR80 = lowest tested rate (300, 100, 30, 10 g/ha) with 80% or greater inhibition; approx. 14 days after treating; 30/21° C.
Procedure, shortened: as §2

[24] = tested on: ALOMY (blackgrass); experiment: Pre-emergence herbicidal activity, cool season; format: in vivo, Alopecurus myosuroides; details: GR80 = lowest tested rate (300, 100, 30, 10 g/ha) with 80% or greater inhibition; approx. 14 days after treating; 18/13° C.
Procedure, shortened: as §1

[25] = tested on: SETVI (green foxtail); experiment: Pre-emergence herbicidal activity, cool season; format: in vivo, Setaria viridis; details: GR80 = lowest tested rate (300, 100, 30, 10 g/ha) with 80% or greater inhibition; approx. 14 days after treating; 18/13° C.
Procedure, shortened: as §2

[26] = tested on: LOLMG (annual ryegrass); experiment: Pre-emergence herbicidal activity, cool season; format: in vivo, Lolium multiflorum; details: GR80 = lowest tested rate (300, 100, 30, 10 g/ha) with 80% or greater inhibition; approx. 14 days after treating; 18/13° C.
Procedure, shortened: as §2

[27] = tested on: BROTE (downy brome); experiment: Pre-emergence herbicidal activity, cool season; format: in vivo, Bromus tectorum; details: GR80 = lowest tested rate (300, 100, 30, 10 g/ha) with 80% or greater inhibition; approx. 14 days after treating; 18/13° C.
Method: (§8) Tables 5 to 8 summarize results of tests conducted as described below to determine the pre-emergence herbicidal activity, in the form of a GR80 value, of illustrative compounds of this invention. […] Compounds of the invention were typically applied at rates of 300, 100, 30, and 10 g/ha. Where herbicidal activity was evident but 80% inhibition was not achieved at the highest rate tested, an asterisk (*) is shown in the following tables.
(§9) The pre-emergence tests were conducted by the following procedure. Topsoil was sieved to pass through a 1.27 cm screen. Fertilizer was added to the topsoil and the mixture was then sterilized by heating. The topsoil mixture was placed in a pot and compacted to a depth of 1.0 to 1.25 cm from the top of the pot. Seeds of each of several monocotyledonous and dicotyledonous annual plant species were placed on top of the soil. Additional soil was subsequently placed over the seeds to level-fill the pot. A known amount of each test compound dissolved or suspended in an appropriate organic solvent was diluted with a 50:50 mix of acetone and water and applied to the surface of the soil. After treatment the plants were placed in a greenhouse where they received 0.64 cm of overhead irrigation. All subsequent watering consisted of a light overhead mist and/or subirrigation as needed for germination and growth. Tables 5 and 6 below relate to warm season plant species which were placed after pre-emergence treatment in a greenhouse with a 30/21° C. day/night temperature regime. Tables 7 and 8 below relates to cool season plant species placed after pre-emergence treatment in a greenhouse or growth chamber with an 18/13° C. day/night temperature regime.
(§10) Approximately 14 days after planting and treating, the plants were observed and herbicidal efficacy recorded as percent inhibition by comparison with untreated plants.
(§11) The plant species usually regarded as weeds which were utilized in the tests are identified in the tables below according to the following legend, in which “d” indicates a dicotyledonous species and “m” a monocotyledonous species. All monocotyledonous species included in the tests herein are grasses.

[28] = tested on: AGRRE (quackgrass (seedling)); experiment: Pre-emergence herbicidal activity, cool season; format: in vivo, Elymus repens; details: GR80 = lowest tested rate (300, 100, 30, 10 g/ha) with 80% or greater inhibition; approx. 14 days after treating; 18/13° C.
Method: as §8, §9, §10, §11

Compound | Pre-emergence activity (GR80) PANMI [1] | Pre-emergence activity (GR80) SORVU [2] | Pre-emergence activity GR80, GALAP [3] | Pre-emergence activity GR80, POLCO [4] | Pre-emergence activity GR80, SINAR [5] | Pre-emergence activity GR80, VERPE [6] [g/ha] | Pre-emergence activity GR80, SASKR [7] | Pre-emergence activity GR80, STEME [8] | Pre-emergence activity GR80, LAMPU [9] | Post-emergence activity GR80, ALOMY [10] | Post-emergence activity GR80, SETVI [11] | Post-emergence activity GR80, LOLMG [12] | Post-emergence activity GR80, BROTE [13] | Post-emergence activity GR80, AVEFA [14] | Post-emergence activity GR80, AEGCY [15] | Post-emergence activity GR80, AGSST [16] | Post-emergence activity GR80, AGRRE [17] | Pre-emergence activity (GR80) PANDI [19] [g/ha] | Pre-emergence activity (GR80) AGSST [20] [g/ha] | also measured
CCN(CC)C(=O)n1cnc(S(=O)(=O)C(F)(F)SCCOC(C)=O)n1 [Example 21] | * (activity observed, at least at highest rate, but <80% inhibition) | * (activity observed, at least at highest rate, but <80% inhibition) | 300 g/ha | [empty] | [empty] | 300 | [empty] | [empty] | 300 g/ha | [empty] | [empty] | [empty] | [empty] | [empty] | [empty] | [empty] | [empty] | – | – | –
CCN(CC)C(=O)n1cnc(S(=O)(=O)C(F)(F)SCCOC(=O)c2ccccc2)n1 [Example 22] | – | * (activity observed, at least at highest rate, but <80% inhibition) | [empty] | [empty] | [empty] | 300 | [empty] | [empty] | [empty] | [empty] | [empty] | [empty] | [empty] | [empty] | [empty] | [empty] | [empty] | 300 | 300 | Pre-emergence activity (GR80) CHEAL [18]: 300 g/ha
CCSC(F)(F)S(=O)(=O)c1ncn(C(=O)N(C)CCOC)n1 [Example 52] | 100 g/ha | – | [empty] | [empty] | 300 g/ha | 30 | 100 g/ha | [empty] | [empty] | – | – | – | – | – | – | – | – | 30 | 300 | Pre-emergence activity (GR80) SOLNI [21]: 300 g/ha; Pre-emergence activity (GR80) ECHCG [22]: 300 g/ha; Pre-emergence activity (GR80) SETFA [23]: 300 g/ha; Pre-emergence activity (GR80) ALOMY [24]: 300 g/ha; Pre-emergence activity (GR80) SETVI [25]: 300 g/ha; Pre-emergence activity (GR80) LOLMG [26]: 300 g/ha; Pre-emergence activity (GR80) BROTE [27]: 300 g/ha; Pre-emergence activity (GR80) AGRRE [28]: 100 g/ha
